Key:
[1] = API concentration in the blood plasma of cattle after oral administration; type: in vivo; details: 600 μg/kg (per pure IVM)
Protocol: Free ivermectin substance was processed in planetary mill, the parameters were as follows: weight of the material—5 g, grinding jar volume—200 mL, grinding media—steel balls (diameter 8 mm, 90.0 g load), processing time—20 minutes. Compound of Formula I was treated according to Example 1 No21.
Cattle were divided into 2 groups of 1 animals each. Free Ivermectin (IVM) and compound of Formula I were orally administered to starving cattle. Blood samples were withdrawn from the jugular vein at appropriate time intervals after administration (0, 4, 20 h).
Ivermectin concentrations in blood plasma were analyzed according to the method Na-Bangchang, K., High-performance liquid chromatographic method for the determination of ivermectin in plasma, Southeast Asian J Trop Med Public Health, 2006 September, 37(5):848-58, PMID: 17333725.
The internal standard (moxidectin) was separated from ivermectin on a Hypersil Gold C18 column(150×4.6 mm, […]), with retention time of 3.7 and 7.0 minutes, respectively. Fluorescence detection was set at an excitation and emission wavelength of 365 and 475 nm, respectively. The mobile phase consisted of acetonitrile, methanol and distilled water (50:45:5,v/v/v), running through the column at a flow rate of 1.5 ml/minute. The chromatographic analysis was operated at 25° C. Sample preparation (100 μl plasma) was done by a single step protein precipitation with acetonitrile, followed by derivatization with 100 μl of N-methylimidazolesolution in acetonitrile (1:1, v/v) and 150 μl of trifluoroacetic anhydrous solution in acetonitrile(1:2, v/v). Calibration curve over the concentration range of 20-8,000 ng/ml plasma was linear with correlation coefficient better than 0.995.
All the blood samples were centrifuged at 3000 rpm for 15 min to obtain […]. Cattle plasma samples (100 μL each) were placed in 1.5 mL Eppendorf tubes, and then the samples underwent protein precipitation. The samples were vortexed for 1 min and centrifuged at 13,400 rpm for 10 min 20 μL of the supernatant was injected into the HPLC.

[2] = tested on: SARS-CoV-2; details: reference level compared with the lung Cmax; read-out: EC 50 for SARS-CoV-2; cited from earlier work
[3] = tested on: monolayer of Caco-2 cells; assay: Permeability of solid dispersion aqueous solution on the Caco-2 cell line; details: Caco-2 monolayer, 3 μM (per pure IVM) in HBSS on top, compound of Formula I = Example 1 No 2

CC[C@H](C)[C@H]1O[C@]2(CC[C@@H]1C)C[C@@H]1C[C@@H](C/C=C(\C)[C@@H](O[C@H]3C[C@H](OC)[C@@H](O[C@H]4C[C@H](OC)[C@@H](O)[C@H](C)O4)[C@H](C)O3)[C@@H](C)/C=C/C=C3\CO[C@@H]4[C@H](O)C(C)=C[C@@H](C(=O)O1)[C@]34O)O2 [IVM, Ivermectin]
Cmax [1]: 350 ± 50 nM
C1, 0 h, ivermectin concentration in plasma ([1]; 0 h, compound of Formula I treated according to Example 1 No21): 0 ± 0.15 ng/mL
C2, 4 h, ivermectin concentration in plasma ([1]; 4 h, compound of Formula I treated according to Example 1 No21): 307.3 ± 46.1 ng/mL
C3, 20 h, ivermectin concentration in plasma ([1]; 20 h, compound of Formula I treated according to Example 1 No21): 104.4 ± 15.6 ng/mL
Cmax in lung calculated by plasma-lung ratio 2.67 ([1]; calculated from plasma Cmax): 930 ± 140 nM
EC50 [2]: 2400 nM
Concentrartion of IVM at the bottom of the well ([3]; 20 min): 50 ng/mL
Concentrartion of IVM at the bottom of the well ([3]; 40 min): 90 ng/mL
Concentrartion of IVM at the bottom of the well ([3]; 60 min): 150 ng/mL
Concentrartion of IVM at the bottom of the well ([3]; 80 min): 190 ng/mL
Concentrartion of IVM at the bottom of the well ([3]; 100 min): 210 ng/mL
Concentrartion of IVM at the bottom of the well ([3]; 120 min): 250 ng/mL
